{"source": "patent US20170119742A1", "about": "“MEDICAMENT FOR PREVENTING AND/OR TREATING STRESS DISEASES” (ONO PHARMACEUTICAL CO., LTD., priority 2014, published 2017)", "key": {"brain TSPO [1]": {"target": "T1, brain TSPO (Rattus norvegicus, UniProt P16257)", "T1 construct": "measured by using brain (cerebral cortex and hippocampus) homogenates of the vehicle treated group and the compound of the present invention treated group; from tissue; host or cells: Wistar rat brain (cerebral cortex, hippocampus) homogenate", "assay": "Comparison of radiotracer in rat ex vivo brain occupancy (Biological example 5)", "conditions": "po, rat cerebral cortex, 3 h; for receptor occupancy at 0.03 mg/kg: 0.03 mg/kg oral; for receptor occupancy at 0.1 mg/kg: 0.1 mg/kg oral; for receptor occupancy at 0.3 mg/kg: 0.3 mg/kg oral; for receptor occupancy at 1 mg/kg: 1 mg/kg oral; for receptor occupancy at 3 mg/kg: 3 mg/kg oral", "protocol": "Next, brain TSPO occupancy of the compound of the present invention was measured by using brain (cerebral cortex and hippocampus) homogenates of the vehicle treated group and the compound of the present invention treated group, using [^3H] PK11195 as a radiotracer. PK11195 was dissolved in dimethyl sulfoxide (DMSO) to prepare a 4 mmol/L solution. After preparing an ethanol solution of 100 nmol/L [^3H] PK11195 (PerkinElmer, Inc.), the solution was diluted 50-fold with 50 mmol/L HEPES buffer (Sigma-Aldrich Co.). In the case of determining the total binding amount of the radiotracer, 50 mmol/L HEPES (99 μL) and DMSO (1 μL) were added to Nunc MiniSorp (trade name, 12×75 mm, Thermo Fisher Scientific Inc.). In the case of determining the nonspecific binding amount of the radiotracer, 4 mmol/L PK11195 (1 μL) was substituted for DMSO (1 μL). The brain homogenate (50 μL) derived from cerebral cortex or the hippocampus was added to the tube. Then [^3H] PK11195 (50 μL) (cerebral cortex: final concentration 0.4532 nmol/L, hippocampus: final concentration 0.4520 nmol/L) was added and stirred, and the mixture was incubated for 90 minutes at 4° C. After completion of the reaction, ice-cold 50 mmol/L HEPES (2 mL) was added to the tube, and then the mixture was suction filtered on a glass fiber filter (GF/B, Brandel Inc.) which pretreated with 0.3 w/v % polyethyleneimine (Sigma-Aldrich Co.), to collect the brain homogenate. After drying the glass fiber filter, the absorbing part of the brain homogenate was transferred to a liquid scintillation vial. ACS-II scintillation cocktail (7 mL) was added to the liquid scintillation vial and stirred, and the radioactivity was measured by liquid scintillation counter (TRI-CARB2900TR, PerkinElmer Life and Analytical Sciences Inc.). Specific binding amount (dpm) of [3H] PK11195 in each brain homogenate was set to a value obtained by subtracting the nonspecific binding amount (dpm) from the total binding amount (dpm). TSPO occupancy (%) in cerebral cortex and hippocampus, of the compound of the present invention treated group, were calculated according to the following equation.\nTSPO Occupancy (%)=(1−X/Y)×100\nX: Specific binding amount (dpm) in each brain homogenate Y: Average value (dpm) of specific binding amount in control group\nThe vehicle (0.5 w/v % methylcellulose 400 cP solution) or the compound of the present invention (0.03, 0.1, 0.3, 1 or 3 mg/kg) was orally administered to male Sic: Wistar rats (Japan SLC, Inc., at the time of use: 11 weeks old). After 3 hours of the administration, in the same manner as Biological example 1, brain TSPO occupancy of the compound of the present invention relative to the specific binding of the vehicle control group was measured by measuring the specific binding amount of [^3H] PK11195 or [^3H] PBR28 (Sekisui Medical Co., Ltd.) of brain (cerebral cortex) homogenates (n=8 in each group). As a result, the average TSPO occupancy of 0.03, 0.1, 0.3, 1 and 3 mg/kg group of the compound of the present invention was […] in the cerebral cortex when [^3H] PK11195 was used as a radiotracer. On the other hand, the average TSPO occupancy was 6.5, 11.5, 40.4, 77.7 and 90.2% in the cerebral cortex when [^3H] PBR28 was used as a radiotracer. […] PBR28 or [^3H] PK11195 radiotracer."}, "brain TSPO [2]": {"target": "T2, brain TSPO (Homo sapiens, UniProt P30536)", "T2 construct": "from tissue; host or cells: living human brain (PET, healthy adults)", "T2 sequence (P30536 whole entry)": "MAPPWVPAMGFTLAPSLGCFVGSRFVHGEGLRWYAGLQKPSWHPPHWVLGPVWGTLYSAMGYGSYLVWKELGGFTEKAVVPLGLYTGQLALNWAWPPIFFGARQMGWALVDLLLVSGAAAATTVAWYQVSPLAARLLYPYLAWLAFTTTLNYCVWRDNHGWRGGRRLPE", "assay": "Brain occupancy using PET in humans (1), [11C] PBR28, Emax model", "format": "in vivo", "protocol": "Male and female healthy adults were used. The compound of the present invention (6 to 200 mg) was once orally administered. Before and after 24 hours of the administration, a PET measurement using [^11C] PBR28 was performed in the following manner.\nMeasurement equipment: PET; ECAT HR+(Siemens) Measurement methods: 90 minutes blank measurement and 10 to 15 minutes transmission measurement were performed using 68Ge/68Ga calibration source. Next, [^11C] PBR28 was intravenously bolus administrated over a period of about 30 seconds. Emission measurement (total 90 minutes, 26 frames) was started together with the administration while an arterial blood sampling for measuring the plasma concentration.\nBrain occupancy, relative to the binding potential (BP) before the administration, was calculated by calculating the BP of each interest area from the brain radioactivity concentration time change of [^11C] PBR28, nonspecific binding amount and arterial blood plasma radioactivity which was corrected in a non-metabolic rate (n=3 to 4 in each group). Further, the average TSPO occupancy of all interest areas was determined from the Lassen plot that obtained by the horizontal axis of the distribution volume before administration and the vertical axis of the value obtained by subtracting the distribution volume after administration from the distribution volume before the administration for each interest area. […] As parameters in this model, Emax (a maximal effect) and EC50 (ng/mL) (a blood concentration which can be achieved 50% Emax) were used. An analysis software NONMEM7.1.2 (ICON Development Solutions) was used in this analysis. Parameters and formula of Emax model were shown in the following.\nTSPO Occupancy (%)=(θ1×X)/(θ2+X)\nX=Plasma concentration (ng/mL)"}, "brain TSPO [3]": {"target": "T2, brain TSPO", "assay": "Brain occupancy using PET in humans (2), different analytical method, Bmax fixed to 1", "format": "in vivo", "conditions": "[11C] PBR28, Emax model with Bmax fixed to 1, mean plasma concentration, SAS, read-out: Ki, blood concentration which can be achieved 50% Bmax (converted)", "protocol": "The data in Biological example 8 were analyzed in a different analytical method. Brain occupancy, relative to the binding potential (BP) before administration, was calculated by calculating the BP of each interest area from the brain radioactivity concentration time change of [^11C] PBR28, nonspecific binding amount and arterial blood plasma radioactivity which was corrected in a non-metabolic rate (n=3 to 4 in each group). Further, the average TSPO occupancy of all interest areas was determined from the Lassen plot that obtained by the horizontal axis of the distribution volume before administration (Vt baseline) and the vertical axis of the value obtained by subtracting the distribution volume after administration from the distribution volume before the administration (Vt baseline−Vt onmed) for each interest area. […] As parameters in this model, Bmax (a maximum number of binding) and Ki (ng/mL) (a blood concentration which can be achieved 50% Bmax) were used. Bmax was fixed to 1 in this analysis, and SAS Version 9.2 (SAS Institute) was used as an analysis software. Parameters and formula of Emax model were shown in the following.\nTSPO Occupancy (%)=Bmax×Cave/(Ki+Cave)×100\nCave=Mean plasma concentration (ng/mL)"}}}
{"compound": "COc1cc(Cl)ccc1[C@H]1c2[nH]c3cccc(F)c3c2C2(CC2)CN1C(C)=O", "note": "[the compound of the present invention, (1S)-2-acetyl-1-(4-chloro-2-methoxyphenyl)-5-fluoro-1,2,3,9-tetrahydrospiro[β-carboline-4,1′-cyclopropane]]", "values": [{"measurement": "receptor occupancy at 0.03 mg/kg", "setting": "brain TSPO [1]; [3H] PBR28", "result": 6.5, "unit": "%"}, {"measurement": "receptor occupancy at 0.03 mg/kg", "setting": "brain TSPO [1]; [3H] PK11195", "result": -1.3, "unit": "%"}, {"measurement": "receptor occupancy at 0.1 mg/kg", "setting": "brain TSPO [1]; [3H] PBR28", "result": 11.5, "unit": "%"}, {"measurement": "receptor occupancy at 0.1 mg/kg", "setting": "brain TSPO [1]; [3H] PK11195", "result": 14.9, "unit": "%"}, {"measurement": "receptor occupancy at 0.3 mg/kg", "setting": "brain TSPO [1]; [3H] PBR28", "result": 40.4, "unit": "%"}, {"measurement": "receptor occupancy at 0.3 mg/kg", "setting": "brain TSPO [1]; [3H] PK11195", "result": 48.1, "unit": "%"}, {"measurement": "receptor occupancy at 1 mg/kg", "setting": "brain TSPO [1]; [3H] PBR28", "result": 77.7, "unit": "%"}, {"measurement": "receptor occupancy at 1 mg/kg", "setting": "brain TSPO [1]; [3H] PK11195", "result": 80.9, "unit": "%"}, {"measurement": "receptor occupancy at 3 mg/kg", "setting": "brain TSPO [1]; [3H] PBR28", "result": 90.2, "unit": "%"}, {"measurement": "receptor occupancy at 3 mg/kg", "setting": "brain TSPO [1]; [3H] PK11195", "result": 91.3, "unit": "%"}, {"measurement": "plasma concentration that makes brain TSPO occupancy reach about 50%", "setting": "brain TSPO [2]; Emax model", "result": "about 15 ng/mL"}, {"measurement": "plasma concentration that makes brain TSPO occupancy reach about 85%", "setting": "brain TSPO [2]; Emax model", "result": "about 150 ng/mL"}, {"measurement": "θ1 (=Emax), maximal effect of Emax model of TSPO occupancy", "setting": "brain TSPO [2]; [11C] PBR28, 6 to 200 mg single oral dose, NONMEM, in % (unit assumed)", "result": "92.8±3.59"}, {"measurement": "EC50", "setting": "brain TSPO [2]; [11C] PBR28, 6 to 200 mg single oral dose, NONMEM, read-out: θ2 (=EC50), blood concentration which can be achieved 50% Emax (converted)", "result": 34.3, "unit": "nM"}, {"measurement": "Ki", "setting": "brain TSPO [3]", "result": 34.1, "unit": "nM"}]}
